- melting point: 206 °C
Compound: Cc1ccc(Cl)c2sc(N)nc12 [Example 2, 2-Amino-7-chloro-4-methylbenzothiazole]

Source: patent publication US20050124631A1, “Inhibitors of polyq-aggregation” (priority 2001, published 2005)
